From patent US4440764A, “Water soluble esters of steroid-oxazole and pharmaceutical compositions containing them” (Gruppo Lepetit S.p.A., priority 1980, dated 1984)

Tests used:
Assay type in all cases: in vivo
[1] = tested on: carrageenin-induced oedema; assay: carrageenin-induced oedema test in rats (i.v.)
[2] = tested on: Nystatin-induced oedema; assay: Nystatin-induced oedema test (i.v.); conditions: antiinflammatory equivalent doses, at the 48th, 72nd, and 96th hours, vs prednisolone hemisuccinate and hydrocortisone hemisuccinate
[3] = tested on: anaphylactic shock; assay: protection against anaphylactic shock in mice; conditions: Mus musculus, ip
Description: (§1) In the protection against anaphylactic shock and endotoxin shock in mice, the following results have been obtained: […]

[4] = tested on: endotoxin shock; assay: protection against endotoxin shock in mice; conditions: Mus musculus, sc
Description: as §1

[5] = tested on: hepatic neoglycogenetic activity; assay: hepatic neoglycogenetic activity in adrenalectomized rats
[6] = tested on: equilibrium sodium-potassium; assay: mineralocorticoid effects in the adrenalectomized rats; conditions: at doses which provide the same pharmacological effect, vs prednisolone or hydrocortisone hemisuccinate
[7] = relative to hydrocortisone hemisuccinate
[8] = relative to prednisolone hemisuccinate

Row | SMILES | times more active than hydrocortisone hemisuccinate [1, 7] [times] | times more active than prednisolone hemisuccinate [1, 8] [times] | duration of antiphlogistic activity versus reference compounds [2] | ED50 [3] [mg/kg] | ED50 [4] [mg/kg] | hepatic neoglycogenetic activity, times more potent than hydrocortisone hemisuccinate [5, 7] [times] | hepatic neoglycogenetic activity, times more potent than prednisolone hemisuccinate [5, 8] | mineralocorticoid effects (effect on equilibrium sodium-potassium) [6]
1 | CC1=NC2(C(=O)COC(=O)CCC(=O)O)C(CC3C4CCC5=CC(=O)C=CC5(C)C4C(O)CC32C)O1 (stereo not drawn) [Deflazacort hemisuccinate, 11β,21-dihydroxy-2'-methyl-5'H-pregna-1,4-dieno[17,16-d]oxazole-3,20-dione-21-hemisuccinate] | 142 | 15 | longer lasting antiphlogistic activity than the reference compounds | 22 | 31 | ~40 | about 5 times | affects the equilibrium sodium-potassium much less than prednisolone or hydrocortisone hemisuccinate
2 | CC12CCC(=O)C=C1CCC1C2C(O)CC2(C)C1CCC2(O)C(=O)COC(=O)CCC(=O)O (stereo not drawn) [Hydrocortisone hemisuccinate, hydrocortisone hemisuccinate] |  |  |  | 143 | 180 |  |  | 
3 | C[C@]12C=CC(=O)C=C1CC[C@@H]1[C@@H]2[C@@H](O)C[C@@]2(C)[C@H]1CC[C@]2(O)C(=O)COC(=O)CCC(=O)O [Prednisolone hemisuccinate, prednisolone hemisuccinate] |  |  |  | 35.5 | 50.5 |  |  | 
